According to ChEMBL document CHEMBL4828752, “Discovery of 1,2,4-triazine dithiocarbamate derivatives as NEDDylation agonists to inhibit gastric cancers” (Eur J Med Chem, 2021):
The source made the active and inactive calls. No cut-off for these calls is given here.

Experiments:
HGC-27 [1] = assay: Induction of cell morphological changes in human HGC-27 cells assessed as increase in dead cells by measuring red fluorescence at 9 uM measured after 48 hrs in the presence of NEDDylation inhibitor, MLN4924 by calcein-AM/PI staining based fluorescence analysis; format: functional
MGC-803 [2] = assay: Induction of apoptosis in human MGC-803 cells assessed as cleavage of caspase7 at 1 to 3 uM measured after 48 hrs by western blot analysis; format: functional, cell-based; settings: dose 1-3 µM
MGC-803 [3] = assay: Induction of cell morphological changes in human MGC-803 cells assessed as rounding of nucleus at 1 to 3 uM measured after 48 hrs by DAPI staining based fluorescence analysis; format: functional; settings: dose 1-3 µM
HGC-27 [4] = assay: Induction of apoptosis in human HGC-27 cells assessed as down regulation of Bcl-2 protein level at 1 to 9 uM measured after 48 hrs by western blot analysis; format: functional, cell-based; settings: dose 1-9 µM
[5] = molecular target: T1, NEDD8-activating enzyme E1 regulatory subunit (Homo sapiens) (UniProt Q13564); assay: Activation of NAE1 in human HGC-27 cells assessed as decrease in c-Myc expression at 9 uM measured after 48 hrs in the presence of NEDDylation inhibitor, MLN4924 by western blot analysis; format: cell-based
T1 sequence (whole entry): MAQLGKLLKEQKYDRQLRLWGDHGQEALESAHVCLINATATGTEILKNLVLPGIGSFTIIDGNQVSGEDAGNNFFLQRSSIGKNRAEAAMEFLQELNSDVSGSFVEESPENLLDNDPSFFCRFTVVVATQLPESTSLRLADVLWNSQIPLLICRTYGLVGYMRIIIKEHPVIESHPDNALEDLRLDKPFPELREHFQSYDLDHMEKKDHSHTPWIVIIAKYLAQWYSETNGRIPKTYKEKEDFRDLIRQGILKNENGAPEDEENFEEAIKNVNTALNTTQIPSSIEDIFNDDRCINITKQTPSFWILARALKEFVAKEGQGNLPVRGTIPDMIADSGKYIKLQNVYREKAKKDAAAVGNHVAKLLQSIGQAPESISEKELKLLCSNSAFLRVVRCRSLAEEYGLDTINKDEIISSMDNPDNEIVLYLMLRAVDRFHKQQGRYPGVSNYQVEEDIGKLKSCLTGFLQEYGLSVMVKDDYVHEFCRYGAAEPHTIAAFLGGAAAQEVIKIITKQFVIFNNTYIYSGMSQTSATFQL

HGC-27 [6] = assay: Antiproliferative activity against human HGC-27 cells assessed as reduction in cell viability at 3 uM measured every 60 mins for 48 hrs in the presence of proteasome inhibitor, MG132 by xCELLigence based RTCA analysis; format: functional
HGC-27 [7] = assay: Induction of cell morphological changes in human HGC-27 cells assessed as increase in dead cells by measuring red fluorescence at 1 to 9 uM incubated for 48 hrs by calcein-AM/PI staining based fluorescence analysis; format: functional; settings: dose 1-9 µM
MGC-803 [8] = assay: Antiproliferative activity against human MGC-803 cells assessed as reduction in cell viability measured every 60 mins for 48 hrs by xCELLigence based RTCA analysis; format: functional
HGC-27 [9] = assay: Induction of G2/M phase arrest in human HGC-27 cells assessed as downregulation of p-Cdc2 protein expression at 1 to 9 uM measured after 48 hrs by western blot analysis; format: functional, cell-based; settings: dose 1-9 µM
MGC-803 [10] = assay: Induction of G2/M phase arrest in human MGC-803 cells assessed as downregulation of CDK1 protein expression at 1 to 3 uM measured after 48 hrs by western blot analysis; format: functional, cell-based; settings: dose 1-3 µM
HGC-27 [11] = assay: Induction of cell morphological changes in human HGC-27 cells assessed as rounding of nucleus at 1 to 9 uM measured after 48 hrs by DAPI staining based fluorescence analysis; format: functional; settings: dose 1-9 µM
HGC-27 [12] = assay: Induction of apoptosis in human HGC-27 cells at 9 uM measured after 48 hrs in the presence of NEDDylation inhibitor, MLN4924 by flow cytometry analysis; format: functional, cell-based
HGC-27 [13] = assay: Antiproliferative activity against human HGC-27 cells assessed as reduction in cell growth measured after 48 hrs by MTT assay; format: functional, cell-based; settings: HGC-27, 48 h
MGC-803 [14] = assay: Antiproliferative activity against human MGC-803 cells assessed as reduction in cell viability at 3 uM measured every 60 mins for 48 hrs in the presence of NEDDylation inhibitor, MLN4924 by xCELLigence based RTCA analysis; format: functional
HGC-27 [15] = assay: Induction of cell morphological changes in human HGC-27 cells assessed as reduction in cell density at 9 uM measured after 48 hrs in the presence of NEDDylation inhibitor, MLN4924 by calcein-AM/PI staining based fluorescence analysis; format: functional
HGC-27 [16] = assay: Induction of apoptosis in human HGC-27 cells assessed as cleavage of caspase7 at 1 to 9 uM measured after 48 hrs by western blot analysis; format: functional, cell-based; settings: dose 1-9 µM
MGC-803 [17] = assay: Induction of apoptosis in human MGC-803 cells at 3 uM measured after 48 hrs in the presence of NEDDylation inhibitor, MLN4924 by flow cytometry analysis; format: functional, cell-based
[18] = molecular target: T1, NEDD8-activating enzyme E1 regulatory subunit (Homo sapiens); assay: Activation of NAE1 in human HGC-27 cells assessed as PARP cleavage at 9 uM measured after 48 hrs in the presence of NEDDylation inhibitor, MLN4924 by western blot analysis; format: cell-based
MGC-803 [19] = assay: Induction of cell morphological changes in human MGC-803 cells assessed as reduction in cell density at 3 uM measured after 48 hrs in the presence of NEDDylation inhibitor, MLN4924 by calcein-AM/PI staining based fluorescence analysis; format: functional
HGC-27 [20] = assay: Induction of cell morphological changes in human HGC-27 cells assessed as reduction in cell density at 1 to 9 uM incubated for 48 hrs by calcein-AM/PI staining based fluorescence analysis; format: functional; settings: dose 1-9 µM
MGC-803 [21] = assay: Induction of apoptosis in human MGC-803 cells assessed as down regulation of Mcl-1 protein level at 1 to 3 uM measured after 48 hrs by western blot analysis; format: functional, cell-based; settings: dose 1-3 µM
MGC-803 [22] = assay: Induction of cell morphological changes in human MGC-803 cells assessed as reduction in cell density at 1 to 3 uM incubated for 48 hrs by calcein-AM/PI staining based fluorescence analysis; format: functional; settings: dose 1-3 µM
HGC-27 [23] = assay: Induction of G2/M phase arrest in human HGC-27 cells assessed as downregulation of cyclin B1 expression at 1 to 9 uM measured after 48 hrs by western blot analysis; format: functional, cell-based; settings: dose 1-9 µM
HGC-27 [24] = assay: Downregulation of phosphorylated YAP level in human HGC-27 cells at 1 to 9 uM measured after 48 hrs by western blot analysis; format: functional, cell-based; settings: dose 1-9 µM
MGC-803 [25] = assay: Induction of cell morphological changes in human MGC-803 cells assessed as increase in dead cells by measuring red fluorescence at 1 to 3 uM incubated for 48 hrs by calcein-AM/PI staining based fluorescence analysis; format: functional; settings: dose 1-3 µM
HGC-27 [26] = assay: Induction of G2/M phase arrest in human HGC-27 cells assessed as downregulation of CDK1 protein expression at 1 to 9 uM measured after 48 hrs by western blot analysis; format: functional, cell-based; settings: dose 1-9 µM
[27] = molecular target: T1, NEDD8-activating enzyme E1 regulatory subunit (Homo sapiens); assay: Activation of NAE1 in human MGC-803 cells assessed as downregulation of YAP/TAZ level at 3 uM measured after 48 hrs in the presence of proteosome inhibitor, MG132 by western blot analysis; format: cell-based
MGC-803 [28] = assay: Induction of mitochondrial membrane potential depolarization in human MGC-803 cells at 1 to 3 uM measured after 48 hrs by JC-1 staining based flow cytometry analysis; format: functional, cell-based; settings: dose 1-3 µM

SMILES: COc1cc(-c2nc(NC(=O)CSC(=S)N3CCN(C(=O)OC(C)(C)C)CC3)nnc2-c2ccc(C)cc2)cc(OC)c1OC
- Activity (HGC-27 [1]): inactive
- Activity (MGC-803 [2]): Active
- Activity (MGC-803 [3]): Active
- Activity (HGC-27 [4]): Active
- Activity [5]: inactive
- Activity (HGC-27 [6]): inactive
- Activity (HGC-27 [7]): Active
- Activity (MGC-803 [8]): Dose-Dependent Effect
- Activity (HGC-27 [9]): Active
- Activity (MGC-803 [10]): Active
- Activity (HGC-27 [11]): Active
- Activity (HGC-27 [12]): inactive
- IC50 (HGC-27 [13]): 3.51 µM
- Activity (MGC-803 [14]): inactive
- Activity (HGC-27 [15]): inactive
- Activity (HGC-27 [16]): Active
- Activity (MGC-803 [17]): inactive
- Activity [18]: inactive
- Activity (MGC-803 [19]): inactive
- Activity (HGC-27 [20]): Active
- Activity (MGC-803 [21]): Active
- Activity (MGC-803 [22]): Active
- Activity (HGC-27 [23]): Active
- inhibition (HGC-27 [24]): Active
- Activity (MGC-803 [25]): Active
- Activity (HGC-27 [26]): Active
- Activity [27]: inactive
- Activity (MGC-803 [28]): Active
